Data reported in patent US20100249184A1, “INDUCTION AND/OR MAINTENANCE OF TUMOR DORMANCY BY DISRUPTION OF UROKINASE PLASMINOGEN ACTIVATOR RECEPTOR-INTEGRIN INTERACTION” (MOUNT SINAI SCHOOL OF MEDICINE, priority 2007, published 2010).

Tested on: T-ELK:GFP cells
Experiment: ERK activation reporter (GFP, FACS) in T-ELK:GFP cells
Format: cell-based, human
Conditions: 38 hrs, untreated 7.4%
Source text: FIGS. 6A-E show ERK activation and growth in vivo. In FIG. 6A, HEK293 and D-Hep3 cells transfected with uPAR^wt produces stronger activation of ERK than cells transfected with uPAR^S245A or with vector (top and middle panels); HEK293, and D-HEp3 cells, transiently transfected with pcDNA3.1 vector, or with an expression construct for uPAR^wt or uPAR^S245A lysed 48 hrs later and analyzed by Western blotting for phospho-ERK (FIG. 6A, top panels) and ERK 1/2 (FIG. 6A, middle panels) with specific antibodies. The bands were scanned with NIH Image and plotted. The ratio of phospho-ERK to ERK was calculated and expressed as a fraction of the ratio of pcDNA3.1 transfected cells. In FIG. 6A (bottom panels), uPAR^wt and uPAR^S245A expression was determined by Western blotting. […] D-HEp3 cells transfected with vector, or uPAR^wt or uPAR^S245A were detached with EDTA 36 hrs after transfection and 7×10^5 cells in 30 μl PBS were inoculated onto chorioallantoic membranes (“CAMs”) of 10-day old chick embryos. Each sample was inoculated onto 4 CAMs. The CAMs were excised 4 days later and the number of tumor cells was determined as in the Examples. The bars show mean and standard deviation. Paired t-test vector/uPAR^S245A p=0.76, vector/uPAR^wt p=0.0005, uPAR^S245/uPAR^wt p=0.0002. Inset: uPAR expression detected by Western blot with R2 antibody. In FIG. 6C, peptide 240-248, but not peptide 17-24, down regulates P-ERK level. […] The cells were lysed and the lysates were analyzed for P-ERK (FIG. 6C, upper panel) and total ERK (FIG. 6C, lower panel) by Western blotting. […] The cells were processed as in FIG. 6C, except that the bands were scanned by NIH Image the P-ERK/ERK ratio was calculated. […] The cells were detached and analyzed for GFP in FACS Canto using FACSDiva software. […]
[…] The cells were detached and analyzed for GFP by FACS analysis using FACS Canto (Becton Dickinson, Calif.) and FACSDiva software. […] Concentration dependence of P-ERK inhibition was analyzed by scanning P-ERK and ERK bands with NIH-Image and expressing their ratios as % of the ratio in untreated control (T-HEp3) cells. […]

peptide 17-24: synthetic uPAR-derived peptide, domain I amino acid 17-24: CALGQDLC (SEQ ID NO:5); negative control [reference compound]
GFP-positive cells (% of total) (25 μM peptide): 6.2%

peptide 240-248: synthetic uPAR-derived peptide, domain III residues 240-248: GCATASMCQ (SEQ ID NO:9)
GFP-positive cells (% of total) (5 μM peptide): 1.6% | GFP-positive cells (% of total) (25 μM peptide): 0.7%
